Assays:
Assay type in all cases: cell-based
[1] = system: progerin (mutant lamin A); experiment: Western blot of progerin (mutant lamin A) induced by UVB radiation; conditions: 5 μM amentoflavone prior to UVB 100 mJ/cm^2; cultured 6 days; cell extract from subject (FIG. 2)
Procedure: (§1) Cells of subjects […] were distributed in a 4-well chamber slide holding a medium prepared by adding 1% LSGS and 100 IU penicillin G to 106 medium at 100,000 cells/well. The cells were divided into a UVB-untreated negative control group, a UVB-treated group and a UVB/amentoflavone-treated group. The next day, the medium was replaced with 106 medium containing 1%
(§2) FBS. The amentoflavone-treated group was treated with 5 μM amentoflavone prior to UVB radiation. 24 hours later, after washing the well with PBS, UVB was irradiated at 100 mJ/cm^2 to the test groups. Then, after treating again with 106 medium containing 1% FBS, the cells were cultured at 37° C. for 6 days. The treated cells were subjected to western blot and immunofluorescence staining. For western blot, the cells were lysed using RIPA buffer (Sigma) and proteins were quantitated according to the Lowry's method. 10 μg of each protein was run on 4-12% Nupage gel (Invitrogen) and then transferred to NC membrane. The membrane was blocked with 5% BSA and reacted O/N at 4° C. with the lamin A mutant antibodies, progerin (Abcam) and p-H2AX (Millipore), diluted at 1:300 and 1:200, respectively, with 5% BSA. […] Then, after washing 3 times for 10 minutes with PBST, bands were detected using ECL and LAS3000.

[2] = system: phosphorylated H2AX; experiment: Immunofluorescence staining of phosphorylated H2AX after UVB radiation; conditions: 5 μM amentoflavone prior to UVB 100 mJ/cm^2; cultured 6 days; cells of the subject (FIG. 3)
Procedure: as §1
as §2, with “LAS3000. […]” for “LAS3000.”

[3] = system: cells of the subject; experiment: Immunofluorescence staining of lamin A: nuclear damage after UVB radiation; conditions: 5 μM amentoflavone prior to UVB 100 mJ/cm^2; cultured 6 days; cells of the subject (FIG. 3)
Procedure: as §1
as §2, with “LAS3000. […]” for “LAS3000.”

O=c1cc(-c2ccc(O)c(-c3c(O)cc(O)c4c(=O)cc(-c5ccc(O)cc5)oc34)c2)oc2cc(O)cc(O)c12 [Amentoflavone]
UVB-induced increase of progerin (mutant lamin A), western blot [1]: decreased | expression of phosphorylated H2AX, immunofluorescence [2]: reduced | structure of the cell nucleus (nuclear damage caused by lamin A defects), immunofluorescence [3]: retained

Source: patent US20120022151A1, “METHOD FOR PREVENTING DAMAGE TO NUCLEAR MEMBRANE OF SKIN CELL BY ADMINISTERING AMENTOFLAVONE” (Amorepacific Corporation, priority 2010, published 2012)
